Values of other authors in patent US20210205254A1, “OMEGA-3 PENTAENOIC ACID COMPOSITIONS AND METHODS OF USE” (Matinas BioPharma, Inc., priority 2012, published 2021).

Details: in vivo

| Structure (SMILES) | absorbed (rate) | bioavailable |
| --- | --- | --- |
| CC[C@H](C)C(=O)O[C@H]1C[C@@H](C)C=C2C=C[C@H](C)[C@H](CC[C@@H]3C[C@@H](O)CC(=O)O3)[C@H]21 [lovastatin] | about 30% | – |
| CC(C)n1c(/C=C/C(O)CC(O)CC(=O)O)c(-c2ccc(F)cc2)c2ccccc21 (centres unmarked) [fluvastatin] | – | approximately 24% |
